# According to patent US20080206194A1, “Method for the treatment of breast cancer” (priority 2007, published 2008):
# “Also recorded” adds a separate entry of the source.
# Assays:
# ERα = ERα detection by immunochemical staining of DMBA/progestin-induced mammary carcinomas; assay type: in vivo; conditions: wild-type FVB mice, medroxyprogesterone/DMBA-induced carcinogenesis, 40 mg/kg subcutaneously, weekly, for 12 weeks, rabbit polyclonal antibody
# Description: FIG. 1 illustrates ER detection by immunochemical staining with a rabbit polyclonal antibody of dimethylbenz(α)anthracene (DMBA)/progestin-induced mammary carcinomas of wild-type FVB mice, transgenic MMTV-Pax8PPARγ FVB mice and GW9662-treated mice, with 40 mg/kg, subcutaneously, weekly, for 12 weeks.
# Mammary carcinogenesis was induced in female wild-type FVB/N or MMTV-Pax8PPARγ transgenic mice purchased from Charles River Laboratories (Wilmington, Mass.) by subcutaneous injection of 600 mg/kg medroxyprogesterone acetate suspension (150 mg/ml, Sicor Pharmaceuticals Inc., Irvine, Calif.), followed one week later by four weekly oral doses of 1 mg dimethylbenz(a)anthracene (DMBA) dissolved in cottonseed oil (10 mg/ml). Following the last dose of DMBA, mice were injected subcutaneously once a week with 40 mg/kg GW9662 dissolved in cottonseed oil (10 mg/ml). […]
# Mammary carcinomas from transgenic MMTV-Pax8PPARγ FVB mice stained intensely for ERα, particularly in the basal layer of cells, as compared to low ERα staining in ductal epithelium from wild-type FVB mice (see FIG. 1). […] ERα was detected by immunochemical staining with a rabbit polyclonal antibody (Santa Cruz Biotechnology, sc-542) diluted 1:1000.
# mammary tumors = assay: Mammary tumor formation after carcinogenesis in Pax8PPARγ transgenic mice; assay type: in vivo; conditions: MMTV-Pax8PPARγ transgenic mice, ER(+) carcinomas; 200 mg/kg subcutaneously once a week for three months after carcinogen administration
# Description: FIG. 2 is a bar graph showing the total number of mammary tumors appearing in transgenic MMTV-Pax8PPARγ FVB mice treated with either vehicle or ERα antagonist fulvestrant, 200 mg/kg subcutaneously once per week for three months after carcinogen administration.
# Mammary carcinogenesis (see, e.g., Yin et al., Characterization of medroxyprogesterone and DMBA-induced multilineage mammary tumors by gene expression. Mol. Carcinogenesis 42:pp. 42-50, (2005)) was induced in Pax8PPARγ transgenic mice, which mammary carcinomas are ER(+) and were treated once a week for three months with the ER antagonist fulvestrant at a dose of 200 mg/kg administered subcutaneously in an oil emulsion. […] Each experimental group consisted of 6 mice. FIG. 2 indicates the total number of mammary tumors appearing three months after carcinogen administration.
Compound,ERα expression (immunochemical staining) in mammary carcinomas (ERα),tumor formation (total number of mammary tumors) (mammary tumors)
"O=C(Nc1ccccc1)c1cc([N+](=O)[O-])ccc1Cl [GW9662, 2-Chloro-5-nitrobenzanilide]",substantial ERα staining; also recorded: pattern of ERα expression similar to MMTV-Pax8PPARγ mice,–
C[C@]12CC[C@@H]3c4ccc(O)cc4C[C@@H](CCCCCCCCC[S+]([O-])CCCC(F)(F)C(F)(F)F)[C@H]3[C@@H]1CC[C@@H]2O (some centres unmarked) [fulvestrant],–,completely inhibited tumor formation
